One series has as its system hM3Dq or rM3Ds. The experiment in a line: Locomotion test in macaques after nigral DREADD AAV and CNO. The class given is in vivo. As for the experimental part: To guide the virus injection in SNr, a guide grid of multiple holes spaced by 1 mm was installed on each subject vertically above the SN. By filling vitamin E in these holes, the accurate coordinates for injection could be obtained from the T1-weighted MRI images (3T Tim Trio scanner, Siemens). Virus injections were performed in nine sites covering the whole SNr, and a total volume of 27 μL virus was unilaterally injected in the right SNr at the speed of 300 nL/min.
To intracranially administrate drug and/or perform electrophysiological recording, a recording chamber covering from anterior caudate to posterior GPi was fixed on the skull with 6 titanium screws and dental cement. Each subject was allowed to recover from the surgery for at least 6 weeks prior to further studies.
Locomotion Test: The locomotion tests for monkeys were conducted in a custom-made observation cage (100 cm×100 cm×100 cm). The top and front of the cage were made of toughened glass in order to gain a clear view for behavioral recording. Monkeys were habituated to the observation cage by placing them inside for 30 minutes on three separate days.
For monkeys injected with AAV8R12-G88P3-HA-hM3Dq, CNO was intracranially infused into the dorsomedial caudate through the recording chamber. To infuse while the animal was awake, the monkey was trained to sit in a primate chair specially designed with its head fixed to the primate chair by a mask made of thermoplastic materials. Injections were conducted through a 33-Gauge needle connected to a 250 μL syringe via a polyethylene pipe (Hamilton, Neuros). […] The needle was held for 5 minutes for drug diffusion before retraction. For monkeys injected with AAV8R12-G88P7-rM3Ds-2A-EYFP, CNO was infused via intramuscular injection (10 mg/kg). […] Videos capturing the subjects' behavior were recorded for at least 90 minutes. Animal behaviors from 30-90 minutes after saline/CNO infusion were further analyzed and quantified.
For rotation analysis, only movements that occurred lower than 30 cm on the z-axis were counted. To determine the direction of the rotation, we first computed the center for the rotation data in the x-y plane as (x0, y0) by averaging all data points, and then we computed the angle relative to (x0, y0) for each time point by the following formula:
where θi represents the rotating angle at time i, and (xi, yi) represents the x-y coordinate at time i. We then calculated the change of rotating angle as Δθi=θi−θi−1. For right nigral injections, when Δθ<0, the direction of the rotation was anticlockwise and was labeled as a contraversive rotation. When Δθ>0, the direction of the rotation was clockwise and was labeled as an ipsiversive rotation. The raw data were analyzed and plotted through a custom R package. Code is available on Github (github.com/chenyef/PD_ana/blob/main/Behavior_ana.txt).

The next series addresses T1, hM3Dq (Homo sapiens, UniProt P20309, A239G/Y149C).
T1 construct: expressed in transfected cells; host or cells: neurons of C57BL/6J mice or of macaques, transduced in vivo by nigral AAV8R12-G88P3-HA-hM3Dq
The experiment in a line: In vivo electrophysiological recording in caudate of anesthetized macaques, hM3Dq. As for the experimental part:
• Electrophysiological recording was performed through a recording chamber while the monkey was anesthetized. Neural responses were recorded by a 16-channel linear probe (Plexon Inc, Uprobe) driven by a mechanical microdrive (Alpha Omega, FlexMT). Signals were passed through a head stage (Plexon Inc, HST/16V-G20 LN) and then split and filtered between 300 Hz and 5 kHz to identify spiking activity with an amplifier system (Plexon Inc, OmniPlex). Detected spikes were then sorted by commercially available software (Plexon Inc, Offline Sorter) for further analysis. To quantify the effect of CNO/DCZ injection, neural activity was recorded for 60 minutes following CNO/DCZ injection. The response time-course for each channel was obtained by counting the spikes within every 10-minute window and then normalizing to the maximal.
To determine the effect of CNO/DCZ injection on the direction of signal change, we performed Pearson correlation between neural responses and time using the ‘corr’ function in Matlab, which generates the correlation coefficient ‘r’ and significant level ‘p’. A neuron was considered to have “Increased” activity when r>0 and p<0.05; and considered to have “Decreased” activity when r<0 and p<0.05. Otherwise, neurons were considered to be “Unchanged” in their neural activities. The responses of all increased neurons were then averaged after being normalized by the maximal response (Crowe et al., 2014; Dai and Wang, 2018; Hirokawa et al., 2019) following CNO/DCZ injection, and then plotted as a function of time to generate the normalized population response.

The nature of series [1]: Locomotion test in naïve macaques (no viral injection). The note with it: naive macaques, n=3, not significant. The class given is in vivo.
Setting [2] is: 34 total cells, CNO infusions, saline 40.6%.
Where [3] appears, read: monkey CM045, 34 cells, CNO infusion into dorsomedial caudate.

T1 sequence (P20309 whole entry Y149C/A239G): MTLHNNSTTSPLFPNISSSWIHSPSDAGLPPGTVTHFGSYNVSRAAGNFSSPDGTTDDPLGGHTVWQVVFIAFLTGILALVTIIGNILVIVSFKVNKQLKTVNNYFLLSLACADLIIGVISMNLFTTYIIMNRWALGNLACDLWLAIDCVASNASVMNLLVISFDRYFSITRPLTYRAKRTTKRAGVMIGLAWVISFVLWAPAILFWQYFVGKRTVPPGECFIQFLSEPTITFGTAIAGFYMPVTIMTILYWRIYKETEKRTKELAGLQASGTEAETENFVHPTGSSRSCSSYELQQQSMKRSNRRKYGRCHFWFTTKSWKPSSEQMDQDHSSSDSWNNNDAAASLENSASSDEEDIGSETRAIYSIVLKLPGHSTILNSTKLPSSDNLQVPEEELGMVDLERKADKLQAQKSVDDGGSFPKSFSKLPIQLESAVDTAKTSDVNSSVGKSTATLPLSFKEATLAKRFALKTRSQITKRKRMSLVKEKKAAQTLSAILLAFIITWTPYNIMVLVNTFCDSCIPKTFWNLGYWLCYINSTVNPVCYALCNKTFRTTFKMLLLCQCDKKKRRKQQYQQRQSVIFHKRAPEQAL

Take `C[N+]1([O-])CCN(C2=Nc3cc(Cl)ccc3Nc3ccccc32)CC1` [CNO, Clozapine-N-oxide]: the “muscle tone, electromyogram recordings” value in the series on hM3Dq or rM3Ds (following CNO infusions, macaques) is reported as “increase in the muscle tone of the contralateral biceps brachii”. Also, the “contraversive rotations (FIG. 10C), mean±SEM” value in the series on hM3Dq or rM3Ds (hM3Dq (intracranial CNO) or rM3Ds (systemic CNO) macaques, n=4, saline 1.004±0.2667) was determined as 6.649±1.662. Moreover, the “velocity of ipsiversive rotations (FIG. 10H), mean±SEM” value in the series with hM3Dq or rM3Ds (n=4 macaques, saline 37.43±3.264, not significant) is 41.37±6.566. Moreover, the “speed during contraversive rotations (FIG. 10G), mean±SEM” value in the series on hM3Dq or rM3Ds (n=4 macaques, saline 38.42±5.465) is recorded as 46.98±6.669. In addition, in the series with hM3Dq or rM3Ds (n=4 macaques, saline 68.42±10.7), the “time in the top portion of the observing cage (FIG. 10D), mean±SEM” value worked out at 33.74±2.641. Further, in the series on hM3Dq or rM3Ds (n=4 macaques, saline 71.53±15.4, not significant), the “total distance (FIG. 10F), mean±SEM” value was found to be 97.37±19.41. The “immobile time (FIG. 10E), mean±SEM” value in the series on hM3Dq or rM3Ds (n=4 macaques, saline 107.1±2.322, not significant) worked out at 89.13±8.379. Besides, the “cells in caudate activated (FIG. 12L)” value on hM3Dq (34 total cells, CNO infusions, saline 18.8%) was determined as 67.6%. On hM3Dq (setting [2]), the “cells in caudate inactivated (FIG. 12L)” value is recorded as 2.9% and the “cells in caudate unchanged (FIG. 12L)” value stood at 29.4%. Besides, on hM3Dq (setting [3]), the “cells in caudate activated (FIG. 12C)” value was 70.6%, the “cells in caudate inactivated (FIG. 12C)” value was determined as 8.8% and the “cells in caudate unchanged (FIG. 12C)” value turned out to be 20.6%. In addition, the “percentage of contraversive and ipsiversive rotation (FIG. 11C), mean±SEM” value in series [1] (saline 0.767±0.4296) was 0.8384±0.4152. Besides, the “speed of contraversive rotations (FIG. 11G), mean±SEM” value in series [1] (saline 39.07±5.889) came out at 39.63±7.092. Further, the “speed of ipsiversive rotations (FIG. 11H), mean±SEM” value in series [1] (saline 41.49±3.96) turned out to be 42.79±4.705. In addition, the “total distance (FIG. 11F), mean±SEM” value in series [1] (saline 53.12±15.3) is 59.48±18.65. Besides, the “time spending in the higher portion of the observing cages (FIG. 11D), mean±SEM” value in series [1] (saline 55.73±2.64) worked out at 60.43±4.542. Further, the “immobile time (FIG. 11E), mean±SEM” value in series [1] (saline 149.9±21.61) was 149.8±22.65.

The record behind these values is patent US20250382346A1, “NEURONAL PROMOTERS AND USES THEREOF” (priority 2023, published 2025).
